From patent US7608630B2, “Marasmius androsaceus L.es Fr extract, piperidone derivative, and their use for the preparation of hypertensives” (Hainan Yangpu New Special Pharmaceutical Co., Ltd., priority 2004, dated 2009) come the findings set out here.

“And” between values parts separate entries of the source, which are not always exact repeats. Identical values can stand only once.

Assay [1] relates to aorta smooth muscle of rabbit. Description: Effects on aorta of rabbit (contraction of isolated aorta section caused by adrenalin). More on the design: species or system New Zealand rabbit. As for the experimental part:
A New Zealand rabbit was beheaded and unconscious. After thoracotomy, its thoracic aorta was quickly taken out, and quickly placed in and flushed with a pre-cooled LOCK's solution (which comprised of 1000 ml water, 9 g NaCl, 0.35 g KCl, 0.35 g MgSO4.7H2O, 0.16 g KH2PO4, and 1 g NaHCO3) to remove bloodiness. The connective tissue outside the blood vessel was carefully cut off, and an aorta section of 2-3 mm wide at an angle of 45° relative to the vessel was taken for use in the following test.
The aorta section of 2 cm long was clamped at its both ends with frog heart clips, and put in a thermostatic perfusion tank of 38° C. with the lower end being fixed at the bottom of the tank and the top end being connected by a thread to a tensile transducer of a two-way electrophysiolograph. Oxygen was bubbled to the solution in the perfusion tank, and the contraction force of the aorta section was recorded after balancing it in the solution for 80 min. During which, the LOCK's solution was changed once per 20 min. After adding 1.2×10^−6 mg/ml adrenalin to the solution, the contraction curve of the aorta section was recorded.

The test system of assay [2] is ileum smooth muscle of guinea pig. In words: Effects on ileum smooth muscle of guinea pig (automatic rhythmic contraction of isolated ileum section). Here is the method:
The section was clamped at its both ends with frog heart clips, and placed in a perfusion tank with the lower end being fixed at the bottom of the tank and the top end being connected by a thread to a tensile transducer of a two-way electrophysiolograph, so that the automatic rhythmic contraction of the ileum section was recorded. The Tai's nutrient solution in the tank was kept at a temperature of 35° C., into which pure […] was bubbled. […] The normal contraction curve of the ileum section was firstly recorded using isoprenaline as a positive control.

The test system of assay [3] is blood pressure of SHR rat. Description: Reduction of blood pressure of anesthetized SHR rat. The class given is in vivo, spontaneously hypertensive rat (SHR). To be noted: SHR rat; for Diastolic pressure / Systolic pressure: 10 mg/kg intravenous; for reduction of systolic pressure and diastolic pressure: dosage range 10-200 mg/kg, intravenous. As for the experimental part:
(§1) A spontaneously hypertensive rat (SHR) was anesthetized with 40 mg/ml pentobarbital, and fixed by its back on an experimental stand. The skin at its neck was cut open after removing hair, and thereafter the right common carotid artery was separated with its proximal end being clamped by a artery clamp and its axifugal end being ligated by a thread. A V-shape cut was made with scissors at the axifugal end, into which an arterial cannula filled with heparin physiological saline was inserted. The arterial cannula was connected with a blood pressure transducer, and then the blood pressure transducer was connected to a computer-controlled three-way physiological-pharmacological recorder. The right femoral vein of the rat was separated and intubated for the injection of a drug. When the blood pressure became stable (i.e., the blood pressure contraction curve became straight), the rat was administered by intravenous route.

The subject of a further assay is blood pressure of cats. In words: Reduction of blood pressure of cat. The class given is in vivo. To be noted: cats, 10 mg/kg o.s; for Diastolic pressure, Animal 1-4 individually / Systolic pressure, Animal 1-4 individually / Systolic pressure, Animal 3-4 individually: 10 mg/kg. Here is the method:
as §1
Five cats of 2.5-3.2 kg were administered orally and intravenously respectively according to the method in Example 8, and then their systolic pressure and diastolic pressure were determined using normal cats non-administered as a control group.

The mark [4] stands for this setting: 10 min after administration (Table 9).
Setting [5] is: 20 min after administration (Table 9).
[6] abbreviates: 30 min after administration (Table 9).
The mark [7] stands for this setting: 40 min after administration (Table 9).
The mark [8] stands for this setting: 50 min after administration (Table 9).
The mark [9] stands for this setting: 60 min after administration (Table 9).
[10] abbreviates: 90 min after administration (Table 9).
Where [11] appears, read: 120 min after administration (Table 9).
Where [12] appears, read: 150 min after administration (Table 9).
The mark [13] stands for this setting: 180 min after administration (Table 9).
Where [14] appears, read: before administration (Table 9).

`CC(C)NCC(O)c1ccc(O)c(O)c1` (stereo not drawn) [Isoprenaline, reference compound]: the “Time of taking effect” value in assay [1] (concentration 1.2 × 10^−6 mg/ml) is reported as 16 min. In assay [1] (concentration 1.2 × 10^−6 mg/ml, relative to original adrenalin contraction), the Contraction force is 1. Further, in assay [2] (concentration 5 × 10^−5 mg/ml), the “Relaxation Time” value is listed as 0.3 h and the “Time of taking effect” value is reported as 16 min. Besides, in assay [2] (concentration 5×10^−5 mg/ml, control), the “time after flushing at which the inhibited contraction is resumed” value is on record as 20 min.
With `CC1(C)CNCC(C)(C)C1=O.Cl` [3,3,5,5-tetramethyl-4-piperidone hydrochloride], the Diastolic pressure in assay [3] (5 min after administration) was 109 ± 13 mm/Hg; in assay [3] (60 min after administration), 89 ± 12 mm/Hg; in assay [3] (120 min after administration), 80 ± 23 mm/Hg; in assay [3] (240 min after administration) it was 112 ± 16 mm/Hg; in assay [3] (before administration), 119 ± 15 mm/Hg. The Systolic pressure in assay [3] (5 min after administration) turned out to be 139 ± 19 mm/Hg; in assay [3] (60 min after administration) it was 123 ± 11 mm/Hg; in assay [3] (120 min after administration), 129 ± 17 mm/Hg; in assay [3] (240 min after administration), 169 ± 14 mm/Hg; in assay [3] (before administration) it was 170 ± 9.3 mm/Hg. The “reduction of systolic pressure and diastolic pressure” value in assay [3] is “could obviously reduce the systolic pressure and diastolic pressure of SHR rat”.
In the case of `CCN1CC(C)(C)C(=O)C(C)(C)C1` [Compound of formula Ia, 1-ethyl-3,3,5,5-tetramethyl-4-piperidone], the “Time of taking effect” value in assay [1] (concentration 1 × 10^−4 mg/ml) was determined as 3 min. Besides, the Contraction force in assay [1] (concentration 1 × 10^−4 mg/ml, 10 min, then adrenalin 1.2×10^−6 mg/ml, relative to original value) was found to be 0.3. Also, the “reduction of the contraction of aorta section caused by adrenalin” value in assay [1] (concentration range 5×10^−3-1×10^−4 mg/ml) is on record as “could obviously reduce the contraction of aorta section caused by adrenalin”. In addition, the “contraction force resumed by adrenalin, fraction of the original value” in assay [1] (sample 10 min, then adrenalin 1.2×10^−6 mg/ml, stated for the three samples together) is “½-⅓”.
For the compound `CC1(C)CNCC(C)(C)C1O` [Compound of formula Ib, 3,3,5,5-tetramethyl-4-piperidanol], the Systolic pressure came out at 140 ± 19 mm/Hg in assay [3] (5 min after administration); 121 ± 15 mm/Hg in assay [3] (60 min after administration); 126 ± 16 mm/Hg in assay [3] (120 min after administration); 162 ± 11 mm/Hg in assay [3] (240 min after administration); 178 ± 13 mm/Hg in assay [3] (before administration). Moreover, the Diastolic pressure in assay [3] (60 min after administration) worked out at 88 ± 10 mm/Hg; in assay [3] (120 min after administration), 89 ± 8.9 mm/Hg; in assay [3] (240 min after administration), 107 ± 9.2 mm/Hg; in assay [3] (before administration), 125 ± 17 mm/Hg. Also, the “reduction of systolic pressure and diastolic pressure” value in assay [3] was “could obviously reduce the systolic pressure and diastolic pressure of SHR rat”. The “Average Diastolic pressure” value in the assay on blood pressure of cats (setting [4]) is on record as 106.75 mmHg; with blood pressure of cats (setting [5]) it was 104.25 mmHg; in the assay on blood pressure of cats (setting [6]) it was 104.75 mmHg; in the assay with blood pressure of cats (setting [7]), 102.25 mmHg; with blood pressure of cats (setting [8]), 103 mmHg; in the assay on blood pressure of cats (setting [9]) it was 109 mmHg. Also, the “Average Diastolic pressure” value is 109.25 mmHg with blood pressure of cats (setting [10]); 116.75 mmHg with blood pressure of cats (setting [11]); 116.75 mmHg in the assay with blood pressure of cats (setting [12]); 118.5 mmHg in the assay on blood pressure of cats (setting [13]); 140 mmHg in the assay with blood pressure of cats (setting [14]). The “Average Systolic pressure” value with blood pressure of cats (setting [4]) worked out at 141.75 mmHg; in the assay with blood pressure of cats (setting [5]) it was 140 mmHg; with blood pressure of cats (setting [6]), 140.5 mmHg; with blood pressure of cats (setting [7]), 139 mmHg; in the assay with blood pressure of cats (setting [8]) it was 136.5 mmHg; with blood pressure of cats (setting [9]), 138 mmHg. In addition, the “Average Systolic pressure” value is on record as 141.75 mmHg in the assay on blood pressure of cats (setting [10]); 151.5 mmHg with blood pressure of cats (setting [11]); 155.25 mmHg in the assay with blood pressure of cats (setting [12]); 158.5 mmHg with blood pressure of cats (setting [13]); 171 mmHg in the assay with blood pressure of cats (210 min after administration (Table 9; two animals)); 178.5 mmHg with blood pressure of cats (240 min after administration (Table 9; two animals)). Also, the “Average Systolic pressure” value in the assay with blood pressure of cats (setting [14]) was 195.25 mmHg. In addition, the “Diastolic pressure, Animal 1-4 individually” value with blood pressure of cats (setting [4]) is 119 mmHg and 105 mmHg and 100 mmHg and 103 mmHg; in the assay on blood pressure of cats (setting [5]) it was 135 mmHg and 89 mmHg (2×) and 104 mmHg; with blood pressure of cats (setting [6]), 130 mmHg and 90 mmHg (2×) and 109 mmHg; with blood pressure of cats (setting [7]) it was 126 mmHg and 91 mmHg and 102 mmHg and 90 mmHg; in the assay with blood pressure of cats (setting [8]), 126 mmHg and 96 mmHg and 103 mmHg and 87 mmHg; in the assay on blood pressure of cats (setting [9]) it was 123 mmHg and 97 mmHg and 102 mmHg and 114 mmHg. The “Diastolic pressure, Animal 1-4 individually” value in the assay on blood pressure of cats (setting [10]) is 125 mmHg and 95 mmHg and 110 mmHg and 107 mmHg; in the assay on blood pressure of cats (setting [11]), 131 mmHg and 94 mmHg and 115 mmHg and 127 mmHg; in the assay with blood pressure of cats (setting [12]), 132 mmHg and 98 mmHg and 117 mmHg and 120 mmHg; with blood pressure of cats (setting [13]), 133 mmHg and 97 mmHg and 113 mmHg and 131 mmHg; with blood pressure of cats (setting [14]), 134 mmHg and 156 mmHg and 116 mmHg and 154 mmHg. Also, the “Systolic pressure, Animal 1-4 individually” value with blood pressure of cats (setting [4]) is 136 mmHg and 139 mmHg and 145 mmHg and 147 mmHg; in the assay with blood pressure of cats (setting [5]), 146 mmHg and 125 mmHg and 153 mmHg and 136 mmHg; in the assay on blood pressure of cats (setting [6]), 146 mmHg and 126 mmHg and 154 mmHg and 136 mmHg; in the assay on blood pressure of cats (setting [7]), 140 mmHg and 126 mmHg and 154 mmHg and 136 mmHg; with blood pressure of cats (setting [8]), 136 mmHg and 130 mmHg (2×) and 150 mmHg; in the assay on blood pressure of cats (setting [9]) it was 140 mmHg and 122 mmHg and 152 mmHg and 138 mmHg. For the same compound, the “Systolic pressure, Animal 1-4 individually” value was 135 mmHg and 130 mmHg and 156 mmHg and 146 mmHg in the assay with blood pressure of cats (setting [10]); 146 mmHg and 131 mmHg and 165 mmHg and 164 mmHg in the assay on blood pressure of cats (setting [11]); 145 mmHg and 139 mmHg and 166 mmHg and 171 mmHg with blood pressure of cats (setting [12]); 152 mmHg and 142 mmHg and 160 mmHg and 180 mmHg with blood pressure of cats (setting [13]); 150 mmHg and 209 mmHg and 185 mmHg and 237 mmHg in the assay with blood pressure of cats (setting [14]). The “Systolic pressure, Animal 3-4 individually” value in the assay with blood pressure of cats (210 min after administration (Table 9)) was 156 mmHg and 186 mmHg; with blood pressure of cats (240 min after administration (Table 9)), 155 mmHg and 202 mmHg. In addition, the “Relaxation Time” value in assay [2] (concentration 1 × 10^−4 mg/ml) is reported as 5 h. The “Time of taking effect” value in assay [2] (concentration 1 × 10^−4 mg/ml) turned out to be 3 min. Further, the “inhibition of the automatic rhythmic contraction of the ileum section” value in assay [2] (different concentrations) is “could inhibit the automatic rhythmic contraction of the ileum section”.
